6 compounds from patent US10414811B2, “Protease-resistant lipidated GLP-1 analogs” (MEDIMMUNE LIMITED, priority 2015, dated 2019) can be followed below.

Like-named read-outs stand apart in the source and are kept apart here. Numbered stars: 1 amine (or outer) side, 2 acyl side, 3 side chain; on linkers, the order of the positions; unused ones are H or OH. Square brackets hold non-standard residues; d marks the D form. Side chains are listed from the residue outwards. Peptide text beside a SMILES is read from it. * marks the point of attachment. γGlu = O=C(O)[C@H](CCC(=O)[*:2])N[*:1]; Palmitoyl = CCCCCCCCCCCCCCCC(=O)*; αMeF = C[C@](N)(Cc1ccccc1)C(=O)O; αMeK = C[C@](N)(CCCCN)C(=O)O; Aib = CC(C)(N)C(=O)O

Holding throughout (format): cell-based
Assay [1] addresses T1, human glucose-dependent insulinotropic peptide receptor (GIPR) (Homo sapiens, UniProt P48546).
T1 construct: expressed in transfected cells
T1 sequence (P48546 22-466): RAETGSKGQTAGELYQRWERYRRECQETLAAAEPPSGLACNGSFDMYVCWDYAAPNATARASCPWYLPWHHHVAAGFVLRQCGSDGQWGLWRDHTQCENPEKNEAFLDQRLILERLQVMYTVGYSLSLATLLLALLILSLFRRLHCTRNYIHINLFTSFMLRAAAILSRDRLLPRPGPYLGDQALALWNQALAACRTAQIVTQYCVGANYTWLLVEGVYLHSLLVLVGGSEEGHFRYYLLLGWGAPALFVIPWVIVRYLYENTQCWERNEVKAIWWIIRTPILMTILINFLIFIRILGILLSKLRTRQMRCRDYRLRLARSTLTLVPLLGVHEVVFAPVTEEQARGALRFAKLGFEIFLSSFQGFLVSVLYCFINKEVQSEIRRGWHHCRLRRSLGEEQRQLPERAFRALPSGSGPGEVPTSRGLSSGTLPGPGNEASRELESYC
Description: cAMP assay, human GIPR cells. The settings on record: cAMP assay. Summed up: (§1)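 Peptide-stimulated cAMP measured by two-step HTRF after a 30 min room-temperature incubation with receptor-expressing cells (hGLP-1R, hGIPR at 1×10^5 cells/ml; hGCGR at 2×10^5 cells/ml). Duplicate dilutions; EC50 from 4-parameter logistic fit of % Delta F.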
A general note: Changes in cAMP serve as a functional read-out for many G protein-coupled receptors.

The target of assay [2] is T2, human glucagon receptor (GCGR) (Homo sapiens, UniProt P47871).
T2 construct: expressed in transfected cells
Description: cAMP assay, human GCGR cells. The settings on record: cAMP assay. Summed up: as §1

The target in assay [3] is T3, human GLP-1 receptor (GLP-1R) (Homo sapiens, UniProt P43220).
T3 construct: expressed in transfected cells
In words: cAMP assay, human GLP-1R cells. The protocol:
Sample dilutions are made in duplicate.
A frozen cryo-vial of cells expressing the receptor of interest is thawed rapidly in a water-bath, transferred to pre-warmed assay buffer and spun at 240×g for 5 minutes. Cells are re-suspended in assay buffer at a batch-dependent optimized concentration (e.g. hGCGR cells at 2×10^5 cells/ml, hGLP-1R and hGIPR cells at 1×10^5 cells/ml).
To this, 5 μL cell suspension is added and the plates incubated at room temperature for 30 minutes.
cAMP levels are measured using a commercially available cAMP dynamic 2 HTRF kit (Cisbio, Cat #62AM4PEJ), following the two step protocol as per manufacturer's recommendations. In brief; anti-cAMP cryptate (donor fluorophore) and cAMP-d2 (acceptor fluorophore) are made up separately by diluting each 1/20 in conjugate & lysis buffer provided in the kit. 5 μL anti-cAMP cryptate is added to wells of the assay plate, and 5 μL cAMP-d2 is added to wells except non-specific binding (NSB) wells, to which conjugate and lysis buffer are added. […] EC50 values of the synthetic peptides determined in cAMP assays are then determined.
Data is transformed to % Delta F as described in the manufacturer's guidelines and analyzed by 4-parameter logistic fit to determine EC50 values. […] To compare the balance of activities at the GLP-1R and GCGR between different peptides and across different conditions, these can be correlated, where the EC50's are related to those of comparator peptides.

Setting [4] is: first determination (n1), read-out: Primary assay EC50 GIP-R (n1).
The mark [5] stands for this setting: second determination (n2), read-out: Primary assay EC50 GIP-R (n2).
The mark [6] stands for this setting: first determination (n1), read-out: Primary assay EC50 Gluc-R (n1).
[7] abbreviates: second determination (n2), read-out: Primary assay EC50 Gluc-R (n2).
[8] abbreviates: cAMP assay, first determination (n1), read-out: Primary assay EC50 GLP-1R n1.
Where [9] appears, read: cAMP assay, second determination (n2), read-out: Primary assay EC50 GLP-1R n2.
The mark [10] stands for this setting: mean of n1 and n2, read-out: Mean pM GLP-1R.

T3 sequence (P43220 24-463): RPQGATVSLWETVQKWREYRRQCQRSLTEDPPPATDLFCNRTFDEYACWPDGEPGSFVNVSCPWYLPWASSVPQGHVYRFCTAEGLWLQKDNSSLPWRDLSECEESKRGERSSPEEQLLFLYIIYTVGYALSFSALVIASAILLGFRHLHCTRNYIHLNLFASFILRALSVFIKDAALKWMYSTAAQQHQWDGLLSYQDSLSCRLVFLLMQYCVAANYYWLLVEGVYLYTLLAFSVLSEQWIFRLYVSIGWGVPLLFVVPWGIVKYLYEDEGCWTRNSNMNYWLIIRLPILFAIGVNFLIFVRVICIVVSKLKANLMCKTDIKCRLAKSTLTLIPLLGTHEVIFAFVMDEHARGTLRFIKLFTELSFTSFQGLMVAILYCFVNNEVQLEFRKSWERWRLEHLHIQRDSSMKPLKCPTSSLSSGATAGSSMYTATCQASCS
T2 sequence (P47871 26-477): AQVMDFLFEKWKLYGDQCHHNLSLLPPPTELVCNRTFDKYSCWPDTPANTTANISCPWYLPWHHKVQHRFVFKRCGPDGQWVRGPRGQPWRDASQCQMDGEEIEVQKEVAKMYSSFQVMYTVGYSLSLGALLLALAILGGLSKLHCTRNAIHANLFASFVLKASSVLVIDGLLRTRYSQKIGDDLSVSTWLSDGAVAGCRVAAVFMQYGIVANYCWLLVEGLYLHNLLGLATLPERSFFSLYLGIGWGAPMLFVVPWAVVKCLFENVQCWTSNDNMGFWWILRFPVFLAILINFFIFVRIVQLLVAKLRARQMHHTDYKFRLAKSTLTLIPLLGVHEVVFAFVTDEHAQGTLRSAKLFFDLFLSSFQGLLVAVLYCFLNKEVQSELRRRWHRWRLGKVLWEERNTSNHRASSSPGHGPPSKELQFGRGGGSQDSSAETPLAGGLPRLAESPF

Consider `CCCCCCCCCCCCCCCC(=O)N[C@@H](CCC(=O)NCCCC[C@H](NC(=O)[C@H](CCCNC(=N)N)NC(=O)CNC(=O)[C@H](CCCCN)NC(=O)[C@@H](NC(=O)[C@H](CC(C)C)NC(=O)[C@H](Cc1c[nH]c2ccccc12)NC(=O)[C@H](C)NC(=O)[C@@H](NC(=O)[C@H](Cc1ccccc1)NC(=O)[C@H](CCC(=O)O)NC(=O)[C@H](CCCCN)NC(=O)[C@H](C)NC(=O)[C@H](C)NC(=O)[C@H](CCC(N)=O)NC(=O)CNC(=O)[C@H](CCC(=O)O)NC(=O)[C@H](CC(C)C)NC(=O)[C@H](Cc1ccc(O)cc1)NC(=O)[C@H](CO)NC(=O)[C@H](CO)NC(=O)[C@@H](NC(=O)[C@H](CC(=O)O)NC(=O)[C@H](CO)NC(=O)[C@@H](NC(=O)[C@H](Cc1ccccc1)NC(=O)[C@@H](NC(=O)CNC(=O)[C@H](CCC(=O)O)NC(=O)C(C)(C)NC(=O)[C@@H](N)Cc1c[nH]cn1)[C@@H](C)O)[C@@H](C)O)C(C)C)[C@@H](C)CC)C(C)C)C(N)=O)C(=O)O` [compound 5], for which the EC50 in assay [1] (setting [4]) is ≥ 81 nM; in assay [1] (setting [5]), ≥ 81 nM; in assay [2] (setting [6]), ≥ 81 nM; in assay [2] (setting [7]), ≥ 81 nM; in assay [3] (setting [8]) it was 7.5 pM; in assay [3] (setting [9]), 5.5 pM. In addition, the EC50 in assay [3] (setting [10]) is 6.5 pM.
`CC[C@H](C)[C@H](NC(=O)[C@](C)(Cc1ccccc1)NC(=O)[C@H](CCC(=O)O)NC(=O)[C@](C)(CCCCN)NC(=O)[C@H](C)NC(=O)[C@H](C)NC(=O)[C@H](CCC(=O)O)NC(=O)CNC(=O)[C@H](CCC(=O)O)NC(=O)[C@H](CC(C)C)NC(=O)[C@](C)(Cc1ccccc1)NC(=O)[C@H](CO)NC(=O)[C@H](CO)NC(=O)[C@@H](NC(=O)[C@H](CCC(=O)O)NC(=O)[C@H](CO)NC(=O)[C@@H](NC(=O)[C@](C)(Cc1ccccc1)NC(=O)[C@H](CO)NC(=O)CNC(=O)[C@H](CCC(=O)O)NC(=O)C(C)(C)NC(=O)[C@@H](N)Cc1c[nH]cn1)[C@@H](C)O)C(C)C)C(=O)N[C@@H](C)C(=O)N[C@@](C)(Cc1ccccc1)C(=O)N[C@H](C(=O)N[C@H](C(=O)N[C@@](C)(CCCCN)C(=O)NCC(=O)NCC(N)=O)C(C)C)C(C)C` [compound 7] (H-H[Aib]EGS[αMeF]TSEVSS[αMeF]LEGEAA[αMeK]E[αMeF]IA[αMeF]VV[αMeK]GG-NH2): the EC50 in assay [1] (setting [4]) was ≥ 100 nM; in assay [1] (setting [5]), ≥ 100 nM; in assay [2] (setting [6]) it was ≥ 100 nM; in assay [2] (setting [7]), ≥ 100 nM; in assay [3] (setting [8]) it was 350 pM; in assay [3] (setting [9]) it was 430 pM. The EC50 in assay [3] (setting [10]) was 389 pM.
Take `CC[C@H](C)[C@H](NC(=O)[C@](C)(Cc1ccccc1)NC(=O)[C@H](CCC(=O)O)NC(=O)[C@](C)(CCCCN)NC(=O)[C@H](C)NC(=O)[C@H](C)NC(=O)[C@H](CCC(=O)O)NC(=O)CNC(=O)[C@H](CCC(=O)O)NC(=O)[C@H](CC(C)C)NC(=O)[C@](C)(Cc1ccccc1)NC(=O)[C@H](CO)NC(=O)[C@H](CO)NC(=O)[C@@H](NC(=O)[C@H](CC(=O)O)NC(=O)[C@H](CO)NC(=O)[C@H](CO)NC(=O)[C@](C)(Cc1ccccc1)NC(=O)[C@H](CO)NC(=O)CNC(=O)[C@H](CCC(=O)O)NC(=O)C(C)(C)NC(=O)[C@@H](N)Cc1c[nH]cn1)C(C)C)C(=O)N[C@@H](C)C(=O)N[C@@](C)(Cc1ccccc1)C(=O)N[C@H](C(=O)N[C@H](C(=O)N[C@@](C)(CCCCN)C(=O)NCC(=O)NCC(N)=O)C(C)C)C(C)C` [compound 8] (H-H[Aib]EGS[αMeF]SSDVSS[αMeF]LEGEAA[αMeK]E[αMeF]IA[αMeF]VV[αMeK]GG-NH2; N-terminus assumed): the EC50 in assay [1] (setting [4]) came out at 23 nM; in assay [1] (setting [5]) it was 23 nM; in assay [2] (setting [6]), 7.8 nM; in assay [2] (setting [7]), 12 nM; in assay [3] (setting [8]) it was 71 pM; in assay [3] (setting [9]) it was 110 pM. Moreover, the EC50 in assay [3] (setting [10]) was found to be 88 pM.
For the compound `CC(C)C[C@H](NC(=O)[C@](C)(Cc1ccccc1)NC(=O)[C@H](CO)NC(=O)[C@H](CO)NC(=O)[C@@H](NC(=O)[C@H](CC(=O)O)NC(=O)[C@H](CO)NC(=O)[C@@H](NC(=O)[C@](C)(Cc1ccccc1)NC(=O)[C@H](CO)NC(=O)CNC(=O)[C@H](CCC(=O)O)NC(=O)C(C)(C)NC(=O)[C@@H](N)Cc1c[nH]cn1)[C@@H](C)O)C(C)C)C(=O)N[C@@H](CCC(=O)O)C(=O)NCC(=O)N[C@@H](CCC(=O)O)C(=O)N[C@@H](C)C(=O)N[C@@H](C)C(=O)N[C@@](C)(CCCCN)C(=O)N[C@@H](CCC(=O)O)C(=O)N[C@@](C)(Cc1ccccc1)C(=O)N[C@H](C(=O)N[C@@H](C)C(=O)N[C@@](C)(Cc1ccccc1)C(=O)N[C@H](C(=O)N[C@H](C(=O)N[C@@](C)(CCCCN)C(=O)NCC(=O)NCC(N)=O)C(C)C)C(C)C)C(C)C` [compound 11] (H-H[Aib]EGS[αMeF]TSDVSS[αMeF]LEGEAA[αMeK]E[αMeF]VA[αMeF]VV[αMeK]GG-NH2), the EC50 in assay [1] (setting [4]) was ≥ 100 nM; in assay [1] (setting [5]), ≥ 100 nM; in assay [2] (setting [6]), ≥ 100 nM; in assay [2] (setting [7]) it was ≥ 100 nM; in assay [3] (setting [8]), 32 pM; in assay [3] (setting [9]), 32 pM. Also, in assay [3] (setting [10]), the EC50 stood at 32 pM.
For the compound `CCCCCCCCCCCCCCCC(=O)N[C@@H](CCC(=O)NCCCC[C@H](NC(=O)[C@H](CC(=O)O)NC(=O)[C@H](CO)NC(=O)[C@@H](NC(=O)[C@](C)(Cc1ccccc1)NC(=O)[C@H](CO)NC(=O)CNC(=O)[C@H](CCC(N)=O)NC(=O)C(C)(C)NC(=O)[C@@H](N)Cc1c[nH]cn1)[C@@H](C)O)C(=O)N[C@@H](CO)C(=O)N[C@@H](CCC(=O)O)C(=O)N[C@@](C)(Cc1ccccc1)C(=O)N[C@@H](CC(C)C)C(=O)N[C@@H](CC(=O)O)C(=O)N[C@@H](CO)C(=O)N[C@@H](CCC(=O)O)C(=O)N[C@@H](CCCNC(=N)N)C(=O)N[C@@H](C)C(=O)N[C@@H](CCCNC(=N)N)C(=O)N[C@@H](CC(=O)O)C(=O)N[C@@](C)(Cc1ccccc1)C(=O)N[C@H](C(=O)N[C@@H](C)C(=O)N[C@@](C)(Cc1ccccc1)C(=O)N[C@@H](CC(C)C)C(=O)N[C@@H](CCC(=O)O)C(=O)N[C@@H](C)C(=O)NCC(=O)NCC(N)=O)C(C)C)C(=O)O` [compound 13] (H-H[Aib]QGS[αMeF]TSDK([γGlu-Palmitoyl])SE[αMeF]LDSERARD[αMeF]VA[αMeF]LEAGG-NH2), the EC50 in assay [1] (setting [4]) was determined as 0.69 nM; in assay [1] (setting [5]) it was 0.63 nM; in assay [2] (setting [6]), 7.6 nM; in assay [2] (setting [7]), 4.1 nM; in assay [3] (setting [8]), 22 pM; in assay [3] (setting [9]), 9.6 pM. Besides, in assay [3] (setting [10]), the EC50 was 16 pM.
Turning to `CSCC[C@H](NC(=O)[C@H](CC(C)C)NC(=O)[C@](C)(Cc1ccccc1)NC(=O)[C@H](CCC(N)=O)NC(=O)[C@@H](NC(=O)[C@](C)(Cc1ccccc1)NC(=O)[C@H](CC(=O)O)NC(=O)[C@H](CCC(N)=O)NC(=O)[C@H](C)NC(=O)[C@H](CCCNC(=N)N)NC(=O)[C@H](CCCNC(=N)N)NC(=O)[C@H](CO)NC(=O)[C@H](CC(=O)O)NC(=O)[C@H](CC(C)C)NC(=O)[C@](C)(Cc1ccccc1)NC(=O)[C@H](CCCCN)NC(=O)[C@H](CO)NC(=O)[C@](C)(Cc1ccccc1)NC(=O)[C@H](CC(=O)O)NC(=O)[C@H](CO)NC(=O)[C@@H](NC(=O)[C@](C)(Cc1ccccc1)NC(=O)[C@H](CO)NC(=O)CNC(=O)[C@H](CCC(N)=O)NC(=O)C(C)(C)NC(=O)[C@@H](N)Cc1c[nH]cn1)[C@@H](C)O)C(C)C)C(=O)N[C@@H](CC(N)=O)C(=O)N[C@H](C(N)=O)[C@@H](C)O` [compound 14] (H-H[Aib]QGS[αMeF]TSD[αMeF]SK[αMeF]LDSRRAQD[αMeF]VQ[αMeF]LMNT-NH2), the EC50 in assay [1] (setting [4]) amounted to 15 nM; in assay [1] (setting [5]) it was 19 nM; in assay [2] (setting [6]), 3 nM; in assay [2] (setting [7]), 1.1 nM; in assay [3] (setting [8]) it was 3100 pM; in assay [3] (setting [9]), 1800 pM. In addition, in assay [3] (setting [10]), the EC50 is 2440 pM.
